Values after ≈ are worked out from the molar mass of the structure shown. Like-named read-outs stand apart in the source and are kept apart here.
Legend:
[1] = physchem
Experimental: (§1) Methanol and dichloromethane were particularly effective for this purpose. After solubilizing the compound and soy oil or tocopherol together with the common solvent, the common solvent was then evaporated using a rotovap. At the resulting concentration of the compound in soy oil or tocopherol, the sample was monitored over approximately 4 weeks for any sign of precipitation, using centrifugation and microscopy; the microscopy was performed using a combination of Differential Interference Contrast (DIC), transmitted dark field, and polarizing modes.

[2] = Effective partition coefficients of local anesthetics into Example 10 dispersions in the presence of albumin; conditions: dispersions and methods of Example 10, RA5-15E dispersion named
Experimental: Nanosep Omega centrifuge filters at 300,000 MWCO from Pall Filtron were used to separate particles from exterior phase.
For HPLC analysis, the bottom phase liquid (filtrate) was injected directly, and the top phase (retentate) dissolved in 500 microliters of methanol, then injected. […] Standards were run for each of the toxins, and toxin concentrations determined in the exterior (bottom) phase and in the top phase retentate.
The analysis proceeded as follows. […] From this and the top phase assay value, the concentration of toxin in the particles was back-calculated. This was then divided by the aqueous phase (bottom phase) concentration, since this was undiluted, in order to arrive at an effective partition coefficient.

[3] = Solubility of drugs in soy oil, water, tocopherol and PC/tocopherol/water cubic phase
Experimental: as §1

[4] = Uptake of toxin into particles, centrifuge filter separation and HPLC: etomidate; conditions: etomidate in the absence of albumin
[5] = test system: bupivacaine cardiotoxicity; test: Rescue in rat model with normally-lethal intravenous injection of bupivacaine; type: in vivo; conditions: rats, 12 mg/Kg intravenously, all animals
Experimental: The RA5-5E and RA5-15E dispersions prepared in Example 10 were subsequently tested in vivo as a rescue agent in a rat model incorporating a normally-lethal intravenous injection of bupivacaine. Twelve adult male rats were randomly arranged into three groups of four animals each. Animals in each group were given a known lethal dose (12 mg/Kg) of the amide local anesthetic bupivacaine intravenously. Each animal was monitored for signs of acute cardiotoxicity. All animals became pulseless within 10 seconds of the injection of bupivacaine. When each animal became pulseless, it was treated immediately with mild chest compression and with one of the following: (i) 4 ml/Kg normal physiologic saline (Group A); (ii) 4 ml/Kg of dispersion RA5-15E of the instant invention with a 15 percent particle concentration (Group B); or, (iii) 6 ml/Kg of dispersion RA5-5E of the instant invention with a 5.6 percent particle concentration (Group C). […] The administration of the dispersion according to the instant invention rescued the animals from death due to the systemic toxicity of an overdose of a common local anesthetic agent.

[6] = pH 7.4; cited from earlier work
[7] = Partitioning of vecuronium bromide between phosphatidylcholine/tocopherol/water reversed cubic phase and water (HPLC); type: physicochemical
Experimental: In this Example, the partitioning of the quaternary ammonium skeletal muscle relaxant vecuronium bromide, a water-soluble compound with a low octanol-water partition coefficient, between a phosphatidylcholine/tocopherol/water reversed cubic phase and water is measured, and found to be very high, sufficiently high as to enable the use of the invention in attenuating the effect of the drug in the body of a mammal. An amount 0.6169 gm of phosphatidylcholine (Phospholipon 90G, from Phospholipid GmbH) was mixed with 0.6730 gm of alpha-tocopherol and 0.2194 gm of a 10% vecuronium bromide solution in water. An amount 1.1226 gm of this mixture was smeared onto the inner wall of a test tube, and 6.4495 gm of water added to the tube so as to contact the mixture. Upon swelling with water, the mixture became a reversed cubic phase. […] The partition coefficient between cubic phase and water was thus approximately 1,600 (or log KQW=3.2). […] One with ordinary skill in the art will recognize that the vecuronium mass balance checks correctly if one assumes that the water content of the final cubic phase, after swelling to equilibrium, is approximately 40%, which is in perfect accord with the phase diagram derived in this laboratory for this cubic phase region.

[8] = intravenous doses as high as 30 mg/Kg/day; cited from earlier work
[9] = Partition of amphotericin B between PC/alpha-tocopherol/water cubic phase and water (HPLC); type: physicochemical
Experimental: Amphotericin B provides an example of an API with high toxicity which has a site of action in the interior of a fungal lipid biomembrane.
An amount 0.0082 g of Amphotericin B and 0.8 mL of DMSO (dimethylsulfoxide) were added to a 16 mL test tube. The test tube was heated to 60° C. until the amphotericin B was completely dissolved. An amount 0.692 g of 2.5% DMPG in the phosphatidylcholine product Lipoid E80, 0.8 mL of DMSO, and 0.6 mL of ethanol were added to a second 16 mL test tube. The mixture was heated to 60° C. and vortexed until the Lipoid E80/DMPG was entirely dissolved. An amount 0.6873 g of vitamin E and 0.8 mL of DMSO were added to a third 16 mL test tube. The mixture was heated to 60° C. and vortexed until the vitamin E was completely dissolved. The contents of the second and third test tubes were added to the first test tube containing the amphotericin B and DMSO mixture. The test tube containing the entire mixture was heated to 60° C. for 30 minutes to ensure that all components were completely dissolved.
An amount of 10 mL of deionized water was added to the test tube. The test tube was gently shaken at 40 RPM for 30 minutes on a Lab-Line Junior Orbit Shaker. The aqueous portion was decanted and filtered through Aldrich medium speed filter paper into a clean test tube and labeled “wash 1”. This washing procedure was repeated three additional times to obtain “wash 2”, “wash 3”, and “wash 4”.
HPLC analysis was then performed to determine the amphotericin B concentrations in the 4 wash solutions and the final, quadruply-washed cubic phase. […] In contrast, the amphotericin B concentrations in the “wash 3” and “wash 4” solutions were both approximately 0.0035 mg/mL, thus making the partition coefficient on the order of 1,000.

[10] = Binding of strontium ions to cubic phase particles (precipitation, centrifugation); type: physicochemical; conditions: 18.9 mM strontium chloride added to RA5-15E; immediate precipitation, centrifuged to the bottom
Source text: A high degree of binding of strontium ions to the phosphatidylcholine in RA5-15E was evidenced by the immediate precipitation of the cubic phase, which centrifuged to the bottom of the dispersion. Were the heavy strontium ions not bound, the cubic phase would be less dense than water and would have centrifuged to the top of the dispersion, as is the usual case with other methods of precipitating the particles. Radiostrontium, and to a lesser extent strontium, have known toxic effects, as do related phosphatidylcholine-binding metals. More broadly, this Example illustrates how the effect of large bilayer surface areas in cubic phase particles can result in effective uptake of toxins that bind to bilayer components.

[11] = oil or lipid, Solubility in soy oil

CC(=O)O[C@H]1C(=O)[C@@]2(C)[C@H]([C@H](OC(=O)c3ccccc3)[C@]3(O)C[C@H](OC(=O)[C@H](O)[C@@H](NC(=O)c4ccccc4)c4ccccc4)C(C)=C1C3(C)C)[C@]1(OC(C)=O)CO[C@@H]1C[C@@H]2O [Paclitaxel]
solubility ([1]; oil or lipid, Solubility in cubic phase with spearmint oil in place of tocopherol): 42 mg/mL (≈ 49.2 mM) | solubility [1, 11]: < 0.1 mg/mL | solubility ([1]; oil or lipid, Solubility in spearmint oil (used in place of tocopherol)): 100 mg/mL (≈ 117 mM)

CCOC(=O)c1ccc(N)cc1 [benzocaine]
effective partition coefficient [2]: 148

COc1c(C)c2c(c(O)c1C/C=C(\C)CCC(=O)OCCN1CCOCC1)C(=O)OC2 [Mycophenolate mofetil]
solubility ([3]; soy oil, oil or lipid): 3000 µg/mL (≈ 6.92 mM) | solubility ([3]; tocopherol, oil or lipid): 200000 µg/mL (≈ 461 mM) | solubility ([3]; water): 39 µg/mL (≈ 0.09 mM)

CCOC(=O)c1cncn1[C@H](C)c1ccccc1 [Etomidate]
solubility ([1]; oil or lipid, Solubility in cubic phase with tocopherol, approx. 34% phosphatidylcholine, 31% tocopherol plus compound, 35% water): 105 mg/mL | solubility [1, 11]: 80 mg/mL (≈ 327 mM) | solubility ([1]; oil or lipid, Solubility in tocopherol): 200 mg/mL (≈ 819 mM) | solubility ([1]; water, Solubility in Water): 4.5e-05 mg/mL (≈ 0.000184 mM) | effective partition coefficient [4]: 309

CCCCN1CCCCC1C(=O)Nc1c(C)cccc1C (stereo not shown) [bupivacaine]
time to pulselessness after injection [5]: ≤ 10 s | octanol-water coefficient [6]: greater than 1,000 | effective partition coefficient [2]: 62

CC(=O)O[C@H]1C[C@@H]2CC[C@@H]3[C@H](CC[C@@]4(C)[C@H]3C[C@H]([N+]3(C)CCCCC3)[C@@H]4OC(C)=O)[C@@]2(C)C[C@@H]1N1CCCCC1 [vecuronium bromide]
log KQW [7]: 3.2 | partition coefficient between cubic phase and water [7]: approximately 1,600 | concentration in the aqueous phase ([7]; after 3 days of contact): 6 µg/mL | concentration in the cubic phase ([7]; after 3 days of contact): 10000 µg/mL | log KQW ([7]; anionic lipid content increased by incorporating a bile salt): approximately 4 | cubic phase-water partition coefficient ([7]; for at least some cubic phases of use in the invention): above 1,000

tocopherol
adverse effects of intravenous doses [8]: essentially free from any adverse effects

CCC(C)n1ncn(-c2ccc(N3CCN(c4ccc(OCC5COC(Cn6cncn6)(c6ccc(Cl)cc6Cl)O5)cc4)CC3)cc2)c1=O (stereo not shown) [Itraconazole]
solubility ([3]; soy oil, oil or lipid): < 500 µg/mL | solubility ([3]; water): 0.001 µg/mL (≈ 1.42e-06 mM)

C[C@@H]1[C@H](O)[C@@H](C)/C=C/C=C/C=C/C=C/C=C/C=C/C=C/[C@H](O[C@@H]2O[C@H](C)[C@@H](O)[C@H](N)[C@@H]2O)C[C@@H]2O[C@](O)(C[C@@H](O)C[C@@H](O)[C@H](O)CC[C@@H](O)C[C@@H](O)CC(=O)O[C@H]1C)C[C@H](O)[C@H]2C(=O)O [amphotericin B]
concentration in "wash 3" and "wash 4" solutions [9]: approximately 0.0035 mg/mL | true concentration in the cubic phase itself, estimated ([9]; corrected for entrapped water): approximately 3 mg/mL | concentration in quadruply-washed cubic phase (HPLC) ([9]; cubic phase with entrapped pockets of water): 1760 µg/mL

[Cl-].[Cl-].[Sr+2] [strontium ions, strontium chloride]
binding of strontium ions to cubic phase particles [10]: strong binding

— patent publication US7968124B2, “Compositions for the reversal and detoxification of anesthetics and other compounds and methods of their use” (Lyotropic Therapeutics, Inc., priority 2004, dated 2011)
